The target in the first experiment is IDH1 R132H enzyme (Homo sapiens (Human), UniProt O75874, R132H). Description: Mutant IDH1 R132H biochemical assay. Particulars: NADPH consumption, luminescent readout; 1.5 nM enzyme, 1 μM NADPH, 250 μM α-KG, 30 minutes, 32° C. On the procedure: Mutant IDH1 R132H Biochemical Assay mIDH1 catalyzes the NADPH-dependent reduction of alpha-ketoglutarate (a-KG) to (2R)-2-hydroxyglutarate (2-HG). NADPH consumption was measured by luminescent readout.
IDH1 R132H enzyme, sequence (O75874 whole entry R132H): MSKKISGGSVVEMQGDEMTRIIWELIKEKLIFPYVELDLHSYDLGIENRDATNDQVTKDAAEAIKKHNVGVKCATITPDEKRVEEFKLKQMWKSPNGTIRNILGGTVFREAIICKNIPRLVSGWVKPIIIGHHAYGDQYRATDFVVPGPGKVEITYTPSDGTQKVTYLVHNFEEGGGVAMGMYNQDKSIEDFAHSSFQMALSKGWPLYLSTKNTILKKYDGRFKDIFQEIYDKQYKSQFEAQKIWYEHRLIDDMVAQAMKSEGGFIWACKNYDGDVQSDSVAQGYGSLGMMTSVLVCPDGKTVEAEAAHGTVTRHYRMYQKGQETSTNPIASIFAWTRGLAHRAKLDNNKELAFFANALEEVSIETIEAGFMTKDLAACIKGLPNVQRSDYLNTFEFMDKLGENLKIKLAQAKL
The biochemical reactions were performed at 32° C. in 384-well plates using a reaction volume of 41 μL and the following assay buffer conditions: 50 mM Tris pH 7.5, 100 mM NaCl, 20 mM MgCl2, 0.05% BSA, 0.01% Brij, 1 μM NADPH, and 250 μM α-KG. The IDH1 R132H enzyme was used in a final concentration of 1.5 nM. Test compounds were used in a concentration range between 0.002 and 10 μM. The final DMSO concentration was 2.4%.
The reaction was incubated for 30 minutes, then 40 μL of detection mix (0.75 μg/ml Luciferase, 0.02 U/ml Oxidoreductase, 4 μg/mL FMN, 2 μL/ml decanal/ethanol, 50 mM Tris pH 7.5, 0.5% Glycerin, 0.01% Tween-20, 0.05% BSA) was added. Luminescence was measured on a luminescent reader (10 seconds measuring time, 1 second integration period, 30% sensitivity). The decrease in luminescence is proportional to mIDH1 activity. IC50 values are determined by interpolation from plots of relative luminescence versus inhibitor concentration.
Mutant IDH1 (LN229 R132H cells), sequence (O75874 whole entry R132H): as above
A word on the IC50: it is the concentration at which inhibition is half-maximal. The low end stands for higher potency, the high end for lower potency. In turn, `Cc1cc2c(cc1CC(=O)O)nc(Nc1ccc(OC(F)(F)F)cc1)n2[C@@H]1C[C@H](C)CC[C@H]1C(C)C` [Example 2-34] yielded a concentration for half-maximal inhibition (IC50) of 0.0063 µM.
Still for that read-out and setting: the value for `CC(C)[C@@H]1CC[C@@H](C)C[C@H]1n1c(Nc2ccc(OC(F)(F)F)cc2)nc2cc(C(=O)O)ccc21` [Example 2-22, 1-[(1R,2S,5R)-2-isopropyl-5-methylcyclohexyl]-2-{[4-(trifluoromethoxy)phenyl]-amino}-1H-benzimidazole-5-carboxylic acid] was 0.004 µM; that for `COC(=O)c1cc2nc(Nc3ccc(OC(C)C)cc3)n([C@@H]3C[C@H](C)CC[C@H]3C(C)C)c2cc1OC` [Example 2-9] was 0.28 µM.
Regarding `COc1cc2c(cc1CC(=O)O)nc(Nc1ccc(OC(F)(F)F)cc1)n2[C@@H]1C[C@H](C)CC[C@H]1C(C)C` [Example 2-37], the IC50 was found to be 0.023 µM.
Still for that read-out and setting: for `CC(C)c1ccc(Nc2nc3cc(CC(=O)O)ccc3n2[C@@H]2C[C@H](C)CC[C@H]2C(C)C)cc1` [Example 2-32] the value was 0.011 µM; for `COC(=O)c1ccc2c(c1)nc(Nc1ccc(C(C)C)cc1)n2[C@@H]1C[C@H](C)CC[C@H]1C(C)C` [Example 2-2], 0.065 µM.
Take `CC(C)Oc1ccc(Nc2nc3cc(CC(=O)O)ccc3n2[C@@H]2C[C@H](C)CC[C@H]2C(C)C)cc1` [Example 2-33]: the IC50 was 0.045 µM.
In turn, `COC(=O)CCc1cc2nc(Nc3ccc(OC(F)(F)F)cc3)n([C@@H]3C[C@H](C)CC[C@H]3C(C)C)c2cc1OC` [Example 2-43, methyl 3-(1-[(1R,2S,5R)-2-isopropyl-5-methylcyclohexyl]-6-methoxy-2-{[4-(tri-fluoromethoxy)phenyl]amino}-1H-benzimidazol-5-yl)propanoate] registered an IC50 of 0.19 µM.
Still for that read-out and setting: for `COC(=O)Cc1ccc2c(c1)nc(Nc1ccc(OC(F)(F)F)cc1)n2[C@@H]1C[C@H](C)CC[C@H]1C(C)C` [Example 2-10] the value was 0.12 µM; for `COC(=O)Cc1cc2nc(Nc3ccc(OC(F)(F)F)cc3)n([C@@H]3C[C@H](C)CC[C@H]3C(C)C)c2cc1OC` [Example 2-16], 0.07 µM; for `Cc1cc2c(cc1C(=O)O)nc(Nc1ccc(C(C)C)cc1)n2[C@@H]1C[C@H](C)CC[C@H]1C(C)C` [Example 2-26], 0.0075 µM.
`Cc1cc2c(cc1C(=O)O)nc(Nc1ccc(OC(F)(F)F)cc1)n2[C@@H]1C[C@H](C)CC[C@H]1C(C)C` [Example 2-25] came in with an IC50 of 0.008 µM.
The same measure, in the same setting: for `COc1cc2c(cc1CCC(=O)O)nc(Nc1ccc(OC(C)C)cc1)n2[C@@H]1C[C@H](C)CC[C@H]1C(C)C` [Example 2-47] the value was 2.8 µM; for `COC(=O)Cc1cc2nc(Nc3ccc(C(C)C)cc3)n([C@@H]3C[C@H](C)CC[C@H]3C(C)C)c2cc1OC` [Example 2-17], 0.068 µM; for `COC(=O)CCc1cc2nc(Nc3ccc(C(C)C)cc3)n([C@@H]3C[C@H](C)CC[C@H]3C(C)C)c2cc1OC` [Example 2-45], 0.18 µM.
On the same count and under the same terms, the value for `Cc1cc2c(cc1CC(=O)O)nc(Nc1ccc(OC(C)C)cc1)n2[C@@H]1C[C@H](C)CC[C@H]1C(C)C` [Example 2-36] was 0.03 µM; that for `COC(=O)c1cc2nc(Nc3ccc(OC(F)(F)F)cc3)n([C@@H]3C[C@H](C)CC[C@H]3C(C)C)c2cc1OC` [Example 2-7] was 0.1 µM; that for `COC(=O)CCc1cc2nc(Nc3ccc(OC(C)C)cc3)n([C@@H]3C[C@H](C)CC[C@H]3C(C)C)c2cc1OC` [Example 2-44] was 0.62 µM.
`COC(=O)c1ccc2c(c1)nc(Nc1ccc(OC(C)C)cc1)n2[C@@H]1C[C@H](C)CC[C@H]1C(C)C` [Example 2-3] had an IC50 of 0.2 µM.
The same measure, in the same setting: the value for `Cc1cc2c(cc1C(=O)O)nc(Nc1ccc(OC(C)C)cc1)n2[C@@H]1C[C@H](C)CC[C@H]1C(C)C` [Example 2-27] was 0.015 µM; that for `COc1cc2c(cc1CC(=O)O)nc(Nc1ccc(C(C)C)cc1)n2[C@@H]1C[C@H](C)CC[C@H]1C(C)C` [Example 2-38] was 0.012 µM.
Regarding `CC(C)c1ccc(Nc2nc3cc(CCC(=O)O)ccc3n2[C@@H]2C[C@H](C)CC[C@H]2C(C)C)cc1` [Example 2-41], the half-inhibitory concentration (IC50) turned out to be 0.012 µM.
On to `COc1cc2c(cc1CCC(=O)O)nc(Nc1ccc(OC(F)(F)F)cc1)n2[C@@H]1C[C@H](C)CC[C@H]1C(C)C` [Example 2-46, 3-(1-[(1R,2S,5R)-2-isopropyl-5-methylcyclohexyl]-6-methoxy-2-{[4-(trifluoromethoxy)phenyl]amino}-1H-benzimidazol-5-yl)propanoic acid], for which the IC50 turned out to be 0.015 µM.
On the same count and under the same terms, for `COC(=O)Cc1cc2nc(Nc3ccc(OC(C)C)cc3)n([C@@H]3C[C@H](C)CC[C@H]3C(C)C)c2cc1OC` [Example 2-18] the value was 0.12 µM; for `COC(=O)Cc1cc2nc(Nc3ccc(C(C)C)cc3)n([C@@H]3C[C@H](C)CC[C@H]3C(C)C)c2cc1C` [Example 2-14], 0.035 µM; for `COC(=O)Cc1cc2nc(Nc3ccc(OC(C)C)cc3)n([C@@H]3C[C@H](C)CC[C@H]3C(C)C)c2cc1C` [Example 2-15], 0.08 µM.
Same read-out and setting: for `COC(=O)CCc1ccc2c(c1)nc(Nc1ccc(C(C)C)cc1)n2[C@@H]1C[C@H](C)CC[C@H]1C(C)C` [Example 2-20] the value was 0.13 µM; for `CC(C)c1ccc(Nc2nc3cc(C(=O)O)ccc3n2[C@@H]2C[C@H](C)CC[C@H]2C(C)C)cc1` [Example 2-23], 0.0063 µM; for `COC(=O)Cc1cc2nc(Nc3ccc(OC(F)(F)F)cc3)n([C@@H]3C[C@H](C)CC[C@H]3C(C)C)c2cc1C` [Example 2-13], 0.045 µM.
On to `CC(C)[C@@H]1CC[C@@H](C)C[C@H]1n1c(Nc2ccc(OC(F)(F)F)cc2)nc2cc(CCC(=O)O)ccc21` [Example 2-40], for which inhibition was half-maximal at 0.015 µM (IC50).
The same measure, in the same setting: for `Cc1cc2c(cc1CC(=O)O)nc(Nc1ccc(C(C)C)cc1)n2[C@@H]1C[C@H](C)CC[C@H]1C(C)C` [Example 2-35] the value was 0.0083 µM.
Same read-out and setting: for `COc1cc2c(cc1CC(=O)O)nc(Nc1ccc(OC(C)C)cc1)n2[C@@H]1C[C@H](C)CC[C@H]1C(C)C` [Example 2-39] the value was 0.07 µM.
The compound `COC(=O)CCc1ccc2c(c1)nc(Nc1ccc(OC(F)(F)F)cc1)n2[C@@H]1C[C@H](C)CC[C@H]1C(C)C` [Example 2-19] had an IC50 of 0.095 µM.
As for `COc1cc2c(cc1C(=O)O)nc(Nc1ccc(OC(F)(F)F)cc1)n2[C@@H]1C[C@H](C)CC[C@H]1C(C)C` [Example 2-28], the IC50 was determined as 0.016 µM.
Take `COC(=O)c1cc2nc(Nc3ccc(OC(C)C)cc3)n([C@@H]3C[C@H](C)CC[C@H]3C(C)C)c2cc1C` [Example 2-6]: the midpoint of inhibition, the IC50, lay at 0.22 µM.
Regarding `COC(=O)c1cc2nc(Nc3ccc(C(C)C)cc3)n([C@@H]3C[C@H](C)CC[C@H]3C(C)C)c2cc1C` [Example 2-5], the IC50 is 0.04 µM.
The same measure, in the same setting: the value for `COC(=O)c1ccc2c(c1)nc(Nc1ccc(OC(F)(F)F)cc1)n2[C@@H]1C[C@H](C)CC[C@H]1C(C)C` [Example 2-1, methyl 1-[(1R,2S,5R)-2-isopropyl-5-methylcyclohexyl]-2-{[4-(trifluoromethoxy)-phenyl]amino}-1H-benzimidazole-5-carboxylate] was 0.12 µM.
For the compound `CC(C)Oc1ccc(Nc2nc3cc(CCC(=O)O)ccc3n2[C@@H]2C[C@H](C)CC[C@H]2C(C)C)cc1` [Example 2-42], it took 0.012 µM to reach half-maximal inhibition (IC50).
The same measure, in the same setting: the value for `COC(=O)CCc1ccc2c(c1)nc(Nc1ccc(OC(C)C)cc1)n2[C@@H]1C[C@H](C)CC[C@H]1C(C)C` [Example 2-21] was 0.38 µM.
Same read-out and setting: for `COC(=O)Cc1ccc2c(c1)nc(Nc1ccc(OC(C)C)cc1)n2[C@@H]1C[C@H](C)CC[C@H]1C(C)C` [Example 2-12] the value was 0.3 µM; for `COC(=O)Cc1ccc2c(c1)nc(Nc1ccc(C(C)C)cc1)n2[C@@H]1C[C@H](C)CC[C@H]1C(C)C` [Example 2-11], 0.08 µM.
`COC(=O)c1cc2nc(Nc3ccc(C(C)C)cc3)n([C@@H]3C[C@H](C)CC[C@H]3C(C)C)c2cc1OC` [Example 2-8] showed a concentration for half-maximal inhibition (IC50) of 0.13 µM.
Same read-out and setting: the value for `CC(C)Oc1ccc(Nc2nc3cc(C(=O)O)ccc3n2[C@@H]2C[C@H](C)CC[C@H]2C(C)C)cc1` [Example 2-24] was 0.013 µM.

The target in another experiment is Mutant IDH1 (LN229 R132H cells) (Homo sapiens (Human), UniProt O75874, R132H). Description: Mutant IDH1 cellular assay (2-HG levels in medium of LN229 R132H cells). It counts as cell-based. To be noted: 2-HG production in LN229 R132H cells, 24 hours incubation, fluorescence readout. The procedure:
Levels of (2R)-2-hydroxyglutarate (2HG) were measured in medium of a cell line with overexpression of mutated isocitrate dehydrogenase (mIDH) protein. mIDH catalyzes the NADPH-dependent reduction of alpha-ketoglutarate to 2-HG. Cells (LN229 R132H, Mohrenz et al., Apoptosis (2013) 18:1416-1425) were grown in DMEM containing 10% FCS. They were harvested by trypsin and seeded into 96-well plates. Cells were incubated overnight at 37° C. in 5% CO2. The next day test compounds were added to each cell well. The final concentration of DMSO was 0.1% and DMSO controls were included. The plates were then placed in an incubator for 24 hours.
2-HG was measured according to Balss et al. (Acta Neuropathol (2012) 124: 883-891). Briefly, HClO4 was added to each well and the plates were centrifuged. Aliquots are removed and incubated with hydroxyglutarate dehydrogenase (HGDH), diaphorase, NAD+, and resazurin. The conversion of resazurin to resorufin was detected by fluorescence spectroscopy at Ex 540 nm Em 600 nm. The increase in fluorescence is proportional to 2-HG production. IC50 values are determined by interpolation from plots of relative fluorescence vs inhibitor concentration.
Compound `COc1cc2c(cc1C(=O)O)nc(Nc1ccc(OC(C)C)cc1)n2[C@@H]1C[C@H](C)CC[C@H]1C(C)C` [Example 2-30] displayed an IC50 of 0.084 µM.
In the case of `COc1cc2c(cc1C(=O)O)nc(Nc1ccc(OC(F)(F)F)cc1)n2[C@@H]1C[C@H](C)CC[C@H]1C(C)C` [Example 2-28], half-maximal inhibition (IC50) was put at 0.038 µM.
